Experimental data published in PubChem BioAssay AID1745844 (Carcinogenic Potency Database (CPDB), 2022).
The source made the active and inactive calls. How the calls were made is not given here.

System: rodent lifetime carcinogenesis bioassay, tumor incidence TD50
Test: carcinogenic potency in animals, long-term in vivo studies, CPDB compilation (AID 1745844)
Conditions: in feed

Nc1ccc2nc3ccccn3c2n1
TD50 (mouse, strain CDF1, females, site: blood vessels, lesion: hemangioendothelial sarcoma, dosed 82 weeks, study length 82 weeks): 43 mg/kg/day
TD50 (mouse, strain CDF1, females, site: blood vessels, lesion: several types, types named in the paper, dosed 82 weeks, study length 82 weeks): 39.9 mg/kg/day
TD50 (mouse, strain CDF1, females, site: liver, lesion: hepatocellular adenoma, dosed 82 weeks, study length 82 weeks): 170 mg/kg/day
TD50 (mouse, strain CDF1, females, site: liver, lesion: hepatocellular carcinoma, dosed 82 weeks, study length 82 weeks): 20 mg/kg/day
TD50 (mouse, strain CDF1, females, site: liver, lesion: several types, types named in the paper, dosed 82 weeks, study length 82 weeks): 12 mg/kg/day
TD50 (mouse, strain CDF1, females, site: lung, lesion: adenoma, dosed 82 weeks, study length 82 weeks): 1090 mg/kg/day
TD50 (mouse, strain CDF1, males, site: blood vessels, lesion: hemangioendothelial sarcoma, dosed 84 weeks, study length 84 weeks): 27.3 mg/kg/day
TD50 (mouse, strain CDF1, males, site: blood vessels, lesion: several types, types named in the paper, dosed 84 weeks, study length 84 weeks): 23.9 mg/kg/day
TD50 (mouse, strain CDF1, males, site: liver, lesion: hepatocellular adenoma, dosed 84 weeks, study length 84 weeks): 201 mg/kg/day
TD50 (mouse, strain CDF1, males, site: liver, lesion: hepatocellular carcinoma, dosed 84 weeks, study length 84 weeks): 255 mg/kg/day
TD50 (mouse, strain CDF1, males, site: liver, lesion: several types, types named in the paper, dosed 84 weeks, study length 84 weeks): 93.2 mg/kg/day
TD50 (mouse, strain CDF1, males, site: lung, lesion: adenoma, dosed 84 weeks, study length 84 weeks): 483 mg/kg/day
TD50 (rat, strain F344/DuCrj, females, site: Zymbal's gland, lesion: squamous-cell carcinoma, dosed 104 weeks, study length 104 weeks): 94 mg/kg/day
TD50 (rat, strain F344/DuCrj, females, site: clitoral gland, lesion: one or several types, types not named, dosed 104 weeks, study length 104 weeks): 56.4 mg/kg/day
TD50 (rat, strain F344/DuCrj, females, site: colon, lesion: adenocarcinoma, dosed 104 weeks, study length 104 weeks): 351 mg/kg/day
TD50 (rat, strain F344/DuCrj, females, site: colon, lesion: adenoma, dosed 104 weeks, study length 104 weeks): 111 mg/kg/day
TD50 (rat, strain F344/DuCrj, females, site: colon, lesion: several types, types named in the paper, dosed 104 weeks, study length 104 weeks): 81.1 mg/kg/day
TD50 (rat, strain F344/DuCrj, females, site: liver, lesion: several types, types named in the paper, dosed 104 weeks, study length 104 weeks): 351 mg/kg/day
TD50 (rat, strain F344/DuCrj, females, site: small intestine, lesion: adenocarcinoma, dosed 104 weeks, study length 104 weeks): 135 mg/kg/day
TD50 (rat, strain F344/DuCrj, females, site: small intestine, lesion: adenoma, dosed 104 weeks, study length 104 weeks): 171 mg/kg/day
TD50 (rat, strain F344/DuCrj, females, site: small intestine, lesion: mucinous carcinoma, dosed 104 weeks, study length 104 weeks): 711 mg/kg/day
TD50 (rat, strain F344/DuCrj, females, site: small intestine, lesion: several types, types named in the paper, dosed 104 weeks, study length 104 weeks): 81.1 mg/kg/day
TD50 (rat, strain F344/DuCrj, males, site: Zymbal's gland, lesion: squamous-cell carcinoma, dosed 104 weeks, study length 104 weeks): 569 mg/kg/day
TD50 (rat, strain F344/DuCrj, males, site: brain, lesion: astrocytoma, dosed 104 weeks, study length 104 weeks): 281 mg/kg/day
TD50 (rat, strain F344/DuCrj, males, site: colon, lesion: adenocarcinoma, dosed 104 weeks, study length 104 weeks): 185 mg/kg/day
TD50 (rat, strain F344/DuCrj, males, site: colon, lesion: adenoma, dosed 104 weeks, study length 104 weeks): 185 mg/kg/day
TD50 (rat, strain F344/DuCrj, males, site: colon, lesion: several types, types named in the paper, dosed 104 weeks, study length 104 weeks): 88.9 mg/kg/day
TD50 (rat, strain F344/DuCrj, males, site: liver, lesion: several types, types named in the paper, dosed 104 weeks, study length 104 weeks): 52.1 mg/kg/day
TD50 (rat, strain F344/DuCrj, males, site: small intestine, lesion: adenocarcinoma, dosed 104 weeks, study length 104 weeks): 45.1 mg/kg/day
TD50 (rat, strain F344/DuCrj, males, site: small intestine, lesion: adenoma, dosed 104 weeks, study length 104 weeks): 137 mg/kg/day
TD50 (rat, strain F344/DuCrj, males, site: small intestine, lesion: mucinous carcinoma, dosed 104 weeks, study length 104 weeks): 281 mg/kg/day
TD50 (rat, strain F344/DuCrj, males, site: small intestine, lesion: several types, types named in the paper, dosed 104 weeks, study length 104 weeks): 33.8 mg/kg/day

Oc1cc2c(cc1O)[C@@H]1c3ccc(O)c(O)c3OC[C@]1(O)C2
TD50 (rat, strain Wistar, both sexes, site: abdomen, lesion: malignant lymphoma, dosed 78 weeks, study length 78 weeks): 2410 mg/kg/day
TD50 (rat, strain Wistar, both sexes, site: forehead, lesion: malignant lymphoma, dosed 78 weeks, study length 78 weeks): 2410 mg/kg/day
TD50 (rat, strain Wistar, both sexes, site: several sites, sites named in the paper, lesion: malignant lymphoma, dosed 78 weeks, study length 78 weeks): 1000 mg/kg/day

CC(=O)N(C(C)=O)c1cccc2c1Cc1ccccc1-2
TD50 (rat, strain Buffalo, females, site: ear duct, lesion: squamous-cell carcinoma, dosed 53 weeks, study length 93 weeks): 61.2 mg/kg/day
TD50 (rat, strain Buffalo, females, site: liver, lesion: hemangioma, dosed 53 weeks, study length 93 weeks): 61.2 mg/kg/day
TD50 (rat, strain Buffalo, females, site: mammary gland, lesion: adenocarcinoma, dosed 53 weeks, study length 93 weeks): 19 mg/kg/day
TD50 (rat, strain Buffalo, females, site: pituitary gland, lesion: adenoma, dosed 53 weeks, study length 93 weeks): 8.63 mg/kg/day

O=[N+]([O-])c1ccc(Cl)c([N+](=O)[O-])c1
TD50 (mouse, strain CD-1 HaM/ICR, females, site: any site (literature study), lesion: several types, types named in the paper, dosed 77 weeks, study length 94 weeks): 124 mg/kg/day (inactive)
TD50 (mouse, strain CD-1 HaM/ICR, females, site: liver, lesion: several types, types named in the paper, dosed 77 weeks, study length 94 weeks): 1520 mg/kg/day (inactive)
TD50 (mouse, strain CD-1 HaM/ICR, females, site: lung, lesion: several types, types named in the paper, dosed 77 weeks, study length 94 weeks): 150 mg/kg/day (inactive)
TD50 (mouse, strain CD-1 HaM/ICR, males, site: any site (literature study), lesion: several types, types named in the paper, dosed 77 weeks, study length 94 weeks): 255 mg/kg/day (inactive)
TD50 (mouse, strain CD-1 HaM/ICR, males, site: liver, lesion: several types, types named in the paper, dosed 77 weeks, study length 94 weeks): 365 mg/kg/day (inactive)
TD50 (mouse, strain CD-1 HaM/ICR, males, site: lung, lesion: several types, types named in the paper, dosed 77 weeks, study length 94 weeks): 541 mg/kg/day (inactive)
TD50 (rat, strain Charles River CD (Sprague-Dawley), males, site: any site (literature study), lesion: several types, types named in the paper, dosed 77 weeks, study length 103 weeks): 12.3 mg/kg/day (inactive)
carcinogen call (rat, strain Charles River CD (Sprague-Dawley), males, site: liver, lesion: several types, types named in the paper, dosed 77 weeks, study length 103 weeks): negative (inactive)
